# According to patent EP4574147A1, “COMPOSITION FOR PREVENTING, AMELIORATING, OR TREATING CANCER COMPRISING STEPPOGENIN AS ACTIVE INGREDIENT” (Kyungpook National University Industry-Academic Cooperation …, priority 2022, dated 2024):
# Columns and labels:
# [1] = system: Lewis lung carcinoma (LLC)-allografted tumor models; assay: Lewis lung carcinoma allograft tumor model with immunohistochemical analysis; assay type: in vivo, C57BL/6J mice; conditions: for average body weights between the groups during the administration period: intraperitoneal (FIG. 6b)
# Description: Six-week-old adult male C57BL/6J mice (SLC, Japan) were used and housed in a specific pathogen-free facility with an individual ventilation system at Kyungpook National University.
# To manufacture Lewis lung carcinoma (LLC)-allografted tumor models, LLC cell suspensions (5 × 10^5 cells in 200 µL of serum-free culture medium) were subcutaneously transplanted into the dorsal flank area of 6-week-old male C57BL/6J mice. After inoculating the LLC cells, the mice were administered 17-AAG (25 mg/kg) or steppogenin (2 mg/kg) via intraperitoneal injection at various time points. Next, tumor volumes were measured according to the following formula: V = 0.5 × A × B^2, where A and B represent the longest and shortest dimensions, respectively. Finally, the mice were anesthetized and tissues were collected for further analysis.
# For immunohistochemical analysis, collected tumor or tissue samples were fixed in 4% paraformaldehyde and embedded in tissue-freezing medium (Leica, Wetzlar, Germany). Frozen blocks were cut into 10 µm sample sections, blocked with 3% BSA in PBST (0.3% Triton X-100 in PBS), and incubated overnight at 4 °C with appropriate primary antibodies. Primary antibodies were as follows: anti-CD34 (Boster Bio, CA, USA), anti-DLL4 (R&D Systems, MN, USA), anti-pimonidazole (Hypoxyprobe-1, HPI, MA, USA), anti-CD3 (Abcam), anti-CD4 (Invitrogen), and anti-CD8 (Invitrogen). After several washes, the samples were incubated with recommended fluorophore-tagged secondary antibodies for 1 hour at room temperature. Next, cell nuclei were stained using Antifade Mounting Medium containing DAPI (Vector Laboratories, Burlingame, CA). Immunofluorescence images were acquired using a Zeiss confocal microscope (Carl Zeiss, Germany). Next, pimonidazole hydrochloride (60 mg/kg; Hypoxyprobe-1, HPI) was injected intravenously through the tail vein of mice and anesthetized 90 minutes later. Finally, tumor tissues were collected for further analysis.
# To determine whether steppogenin induces vascular normalization, T-cell infiltration in tumor tissues was examined.
# HEK293T cells [2] = assay: Lactate dehydrogenase cytotoxicity assay; assay type: cell-based, human; conditions: LDH release, hypoxia 24 h, compared to vehicle treatment (FIG. 3b)
# Description: HEK293T cells were seeded at 2 × 10^3 cells/well in 96-well plates and cultured at 37 °C for 24 h. Next, the cells were treated with various concentrations of steppogenin for 24 h under hypoxia conditions. Lactate dehydrogenase (LDH) release values were evaluated using the Cytotoxicity LDH Assay Kit-WST (DOJINDO) according to the manufacturer's instructions. Cytotoxicity was measured using a microplate reader (Infinite M200 Pro; TECAN) at 490 nm.
# HIF-1α [3] = assay: Immunofluorescence staining of intranuclear HIF-1α; assay type: cell-based, human; conditions: A549 cells, hypoxia 4 h, immunofluorescence (FIG. 4b)
# Description: Cells were seeded at a density of 2 × 10^4 - 3 × 10^4 cells/well on coverslips of 4-well plates and cultured for 24 h. For HIF-1α staining, A549 cells were treated with various compounds and incubated under normoxia or hypoxia conditions for 4 h. […] Next, the cells were fixed with 4% paraformaldehyde and permeabilized with 1% Triton X-100. The fixed cells were blocked with phosphate-buffered saline (PBS) containing 3% bovine serum albumin (BSA) and then incubated with primary antibodies overnight. After incubation, the cells were incubated with secondary antibodies for 1 hour and their nuclei were stained using DAPI. The stained cells were visualized using a confocal microscope (Leica TCS SP5 II Dichroic/CS, Leica, Germany).
# [4] = system: HIF-1α target genes VEGF, GLUT1, CXCR4, and CA9; assay: Western blot analysis of HIF-1α target gene protein levels; assay type: cell-based; conditions: hypoxia, compared to vehicle control group (FIG. 4d)
# Description: (§1) Proteins were extracted from cultured cells using RIPA lysis buffer (Thermo Scientific, Waltham, MA, USA). The protein extracts were separated using SDS-PAGE and transferred to nitrocellulose membranes (Whatman, Maidstone, England). The membranes were blocked with 5% skim milk in Tris-buffered saline containing 0.1% Tween-20 for 1 hour at room temperature. After blocking, the membranes were incubated with specific primary antibodies overnight at 4°C, and then incubated with secondary antibodies for 1 hour at room temperature. Proteins were detected using the Enhanced Chemiluminescence Kit (Bio-Rad, Hercules, CA, USA) according to the manufacturer's instructions. Primary antibodies against HIF-1α (BD Biosciences, San Diego, CA, USA), VEGF (Santa Cruz Biotechnology, Santa Cruz, CA, USA), CXCR4 (Abcam, Cambridge, UK), CA9 (Abcam), DLL4 (Santa Cruz Biotechnology), NOTCH1 (Thermo Scientific), and β-actin (Santa Cruz Biotechnology) were used.
# EA.hy 926 cell = assay: Spheroid sprouting assay; assay type: cell-based, human; conditions: VEGF treatment, 2 days (FIG. 5d)
# Description: EA.hy 926 cell suspension (5×10^3 cells) was distributed on the lid of a 100 mm dish using a hanging-drop method and maintained for 24 hours. The next day, spheroids were harvested and mixed with Methocel stock solution containing 20% FBS. Next, spheroids containing Methocel solution were seeded in 24-well plates. After incubation at 37°C for 30 minutes, VEGF or steppogenin was added to the polymerized Methocel solution and incubated for 2 days.
# [5] = system: HIF-1α target genes VEGF, GLUT1, CXCR4, and CA9; assay: Real-time qRT-PCR of HIF-1α target gene mRNA; assay type: cell-based; conditions: hypoxia (FIG. 4c)
# Description: Total RNA was isolated using TRIzol Reagent (Invitrogen). The isolated RNA was used to synthesize cDNA using ReverTra Ace qPCR RT Master Mix (TOYOBO, Osaka, Japan) according to the manufacturer's protocol. The synthesized cDNA was mixed with gene-specific primers. Amplification real-time polymerase chain reaction (PCR) was performed using SYBR Green PCR Master Mix (Applied Biosystems, CA, USA). The heat cycle proceeded as follows: 50 °C for 2 min, 95 °C for 10 min, 40 cycles of denaturation at 95 °C for 15 s, and annealing at 60 °C for 1 min. Mean cycle threshold values were used to calculate mRNA expression with normalization to β-actin as an internal control.
# HIF-1α [6] = assay: Western blot analysis of HIF-1α protein expression under hypoxia; assay type: cell-based, human; conditions: for HIF-1α protein levels: dose-dependent, maximum dose 3 µM (FIG. 4a)
# Description: as §1
# To determine the effect of the selected natural compounds on HIF-1α protein expression, Western blotting was performed on HEK293T cells. […] Accordingly, the effect of five compounds with HIF-1α inhibitory activity on DLL4 reporter activity in ECs was also investigated. […] Therefore, Compound #57 was selected as a potential inhibitor of HIF-1α and DLL4.
# Ki-67 = assay: Immunofluorescence staining of Ki-67 in endothelial cells; assay type: cell-based, human; conditions: hypoxia
# Description: (§2) Cells were seeded at a density of 2 × 10^4 - 3 × 10^4 cells/well on coverslips of 4-well plates and cultured for 24 h. For HIF-1α staining, A549 cells were treated with various compounds and incubated under normoxia or hypoxia conditions for 4 h. For Ki-67 and DLL4 staining, EA.hy926 cells were treated with the same compounds and maintained under VEGF (20 ng/mL) treatment. Next, the cells were fixed with 4% paraformaldehyde and permeabilized with 1% Triton X-100. The fixed cells were blocked with phosphate-buffered saline (PBS) containing 3% bovine serum albumin (BSA) and then incubated with primary antibodies overnight. After incubation, the cells were incubated with secondary antibodies for 1 hour and their nuclei were stained using DAPI. The stained cells were visualized using a confocal microscope (Leica TCS SP5 II Dichroic/CS, Leica, Germany).
# DLL4 [7] = assay: DLL4-luciferase dual-luciferase assay in EA.hy926 cells with VEGF; assay type: cell-based, human
# Description: (§3) To perform the HRE-luciferase assay, HEK293T cells were seeded in a 96-well plate at a density of 5×10^3 cells/well and cultured at 37°C. Next, cells were co-transfected with pGL3-HRE-luciferase plasmid and pRL-SV40 Renilla plasmid containing 5 copies of HRE of human VEGF gene using a vivamagic transfection reagent (Vivagen, Seongnam, Korea) (Kwon et al., 2015). After 24 h, cells were pretreated with various concentrations of natural compounds for 1 h and then incubated under hypoxia conditions for 24 h. To perform the DLL4-luciferase assay, EA.hy926 cells were seeded in 24-well plates at a density of 4 × 10^4 cells/well and cultured at 37 °C for 24 h. Cells were co-transfected with pGL3-DLL4 luciferase and pRL-SV40 Renilla plasmids using Lipofectamine 2000 (Invitrogen) and cultured at 37°C for 24 h. Next, the cells were incubated with various concentrations of natural compounds for 1 h and then incubated for 24 h in the presence or absence of VEGF (10 ng/mL). The luminescence of HRE- and DLL4-promoter activities was detected using a microplate reader and the Dual-Luciferase Assay Kit (Promega, Madison, WI, USA) according to the manufacturer's instructions. The luciferase activity of the natural compounds was normalized to Renilla luciferase activity.
# HIF-1α [8] = assay: HRE-luciferase dual-luciferase assay (HIF-1α promoter reporter activity); assay type: cell-based, human
# Description: as §3
# To select potential HIF-1α inhibitors, the effects of 70 natural compounds were tested on HIF-1α promoter reporter activity using a dual-luciferase assay.
# HEK293T cells [9] = assay: Cell counting kit-8 assay (cell viability under hypoxic conditions); assay type: cell-based, human; conditions: hypoxia, compared to vehicle treatment (FIG. 3a)
# Description: HEK293T cells were seeded at a density of 5 × 10^3 cells/well in 96-well plates and cultured at 37°C for 24 h. After 24 hours, the natural compounds were diluted in the medium according to the concentration and replaced. Cell viability was determined after exposure to hypoxic conditions for 24 h using the Cell Counting Kit-8 (DOJINDO, Rockville, MD, USA) according to the manufacturer's instructions, and measured using a microplate reader (Infinite M200 Pro; TECAN, Mannedorf, Switzerland) at 450 nm.
# To test the inhibitory activity of 70 natural compounds on HIF-1 and DLL4 activity, their cytotoxic effects on immortalized normal cells were first tested under hypoxia conditions. In particular, under these conditions, HEK293T cells were treated with compounds at various concentrations (0.1 to 10 µM).
# DLL4 [10] = assay: Western blot analysis of VEGF-induced DLL4 protein level in endothelial cells; assay type: cell-based, human
# Description: as §1
# Notch1, and NICD = assay: Western blot analysis of VEGF-induced Notch1 and NICD protein levels; assay type: cell-based, human; conditions: HUVECs (FIG. 5a)
# Description: as §1
# DLL4 [11] = assay: Immunofluorescence staining of DLL4 in endothelial cells; assay type: cell-based, human; conditions: hypoxia, immunofluorescence (FIG. 5b)
# Description: as §2
# EA.hy926 cells = assay: Wound-healing migration assay; assay type: cell-based, human
# Description: EA.hy926 cells were seeded at a density of 4 × 10^4 cells/well in 12-well plates and incubated for 24 hours. The cells were starved overnight in a serum-free medium and treated with mitomycin C (0.5 µg/mL) for 1 h. When confluent, a wound was made with a pipette tip and the cells were washed with a serum-free medium to remove cell debris. Next, the plates were treated with a conditioned medium collected from HEK293T cell cultures under hypoxia conditions treated with steppogenin. Wound closure was monitored and photographs were taken at 0 h and 8 h. Cell migration was measured by calculating the wound area between 0 h and 8 h.
# [12] = 17-AAG 25 mg/kg, steppogenin 2 mg/kg
# [13] = immunohistochemical staining, compared to control group, 17-AAG 25 mg/kg, steppogenin 2 mg/kg (FIG. 6c)
# [14] = tumor tissues, steppogenin 2 mg/kg (FIG. 6e)
# [15] = ECs, VEGF treatment, screening (FIG. 2c)
structure (smiles),measurement,setting,value
"C=CCNC1=C2C[C@@H](C)C[C@H](OC)[C@H](O)[C@@H](C)/C=C(\C)[C@H](OC(N)=O)[C@@H](OC)/C=C\C=C(/C)C(=O)NC(=CC1=O)C2=O [Compound 17-AAG, tanespimycin, reference compound]",average body weights between the groups during the administration period,[1]; [12],no significant difference
"O=C1C[C@@H](c2ccc(O)cc2O)Oc2cc(O)cc(O)c21 [steppogenin, (2S)-2-(2,4-dihydroxyphenyl)-5,7-dihydroxy-2,3-dihydrochromen-4-one]",cytotoxicity,HEK293T cells [2],not altered
same,intranuclear expression of HIF-1α,HIF-1α [3],decreased
same,protein levels of CA9,[4],suppressed
same,protein levels of CXCR4,[4],suppressed
same,protein levels of VEGF,[4],suppressed
same,germination ability (number of germinations) in 3D EC spheroid cultures,EA.hy 926 cell,significantly inhibited
same,mRNA expression of CA9,[5],inhibited
same,mRNA expression of CXCR4,[5],inhibited
same,mRNA expression of GLUT1,[5],inhibited
same,mRNA expression of VEGF,[5],inhibited
same,average body weights between the groups during the administration period,[1]; [12],no significant difference
same,tumor growth,"[1]; 17-AAG 25 mg/kg, steppogenin 2 mg/kg, intraperitoneal, days 7, 9, 11, 13, 15 (FIG. 6a)",significantly inhibited
same,HIF-1α expression level in tumors,[1]; [13],significantly reduced
same,hypoxic region in tumors,[1]; [13],significantly reduced
same,microvessel density analyzed using CD34 antibody,"[1]; steppogenin 2 mg/kg, compared to control tissue (FIG. 6d)",significantly reduced
same,infiltration of CD3+ T cells,[1]; [14],significantly increased
same,ratio of CD8+ to CD4+ T cells in tumors,[1]; [14],decreased
same,HIF-1α protein levels,"HIF-1α [6]; A549, hypoxia",significantly inhibited
same,HIF-1α protein levels,"HIF-1α [6]; ARPE19, hypoxia",significantly inhibited
same,HIF-1α protein expression,"HIF-1α [6]; HEK293T cells, hypoxia, screening of selected compounds (FIG. 2b)",inhibited
same,HIF-1α protein levels,"HIF-1α [6]; HEK293T, hypoxia",significantly inhibited
same,"level of Ki-67, a cell proliferation marker",Ki-67,decreased
same,DLL4-luciferase reporter activity,"DLL4 [7]; 0.3 to 10.0 µM, VEGF-treated (FIG. 3e)",significantly reduced
same,DLL4 luciferase activity induced by VEGF,DLL4 [7]; [15],significantly suppressed
same,IC50,"DLL4 [7]; Homo sapiens, EA.hy 926, EA.hy926 cells (FIG. 3f)",8.46 ± 1.08 µM
same,HRE-luciferase reporter activity,"HIF-1α [8]; 0.1 to 10 µM, dose-dependent, hypoxia (FIG. 3c)",significantly inhibited
same,HRE-luciferase activity compared to the hypoxic vehicle (DMSO) control group,"HIF-1α [8]; HEK293T cells, hypoxia 24 h, screening (FIG. 2a)",< 70%
same,IC50,"HIF-1α [8]; Homo sapiens, 72 h, HRE-luciferase reporter, hypoxia (FIG. 3d), read-out: half-maximal inhibitory concentration (IC50) for HIF-1α activity",0.56 ± 0.043 µM
same,dose-dependent cell viability,HEK293T cells [9],not altered
same,DLL4 protein level induced by VEGF,DLL4 [10]; [15],significantly suppressed
same,VEGF-induced DLL4 protein levels,DLL4 [10]; HUVECs (FIG. 5a),dose-dependently reduced
same,VEGF-induced NICD protein levels,"Notch1, and NICD",dose-dependently reduced
same,VEGF-induced Notch1 protein levels,"Notch1, and NICD",dose-dependently reduced
same,DLL4 expression in ECs,DLL4 [11],dramatically suppressed
same,wound closure,"EA.hy926 cells; HUVECs, hypoxia, 0 h to 8 h (FIG. 5c)",significantly reduced
same,number of migrating cells,EA.hy926 cells; hypoxia (FIG. 5c),significantly reduced
